Values of other authors, collected in article PMC9516332 (Frontiers in Oncology, 2022).
Like-named read-outs stand apart in the source and are kept apart here.

Legend:
[1] = target: T1, panel of 255 wild-type kinases (Homo sapiens, UniProt Q13976); conditions: kinase PGK, 1 µmol/L single concentration, cited from earlier work
T1 sequence (Q13976 1-671): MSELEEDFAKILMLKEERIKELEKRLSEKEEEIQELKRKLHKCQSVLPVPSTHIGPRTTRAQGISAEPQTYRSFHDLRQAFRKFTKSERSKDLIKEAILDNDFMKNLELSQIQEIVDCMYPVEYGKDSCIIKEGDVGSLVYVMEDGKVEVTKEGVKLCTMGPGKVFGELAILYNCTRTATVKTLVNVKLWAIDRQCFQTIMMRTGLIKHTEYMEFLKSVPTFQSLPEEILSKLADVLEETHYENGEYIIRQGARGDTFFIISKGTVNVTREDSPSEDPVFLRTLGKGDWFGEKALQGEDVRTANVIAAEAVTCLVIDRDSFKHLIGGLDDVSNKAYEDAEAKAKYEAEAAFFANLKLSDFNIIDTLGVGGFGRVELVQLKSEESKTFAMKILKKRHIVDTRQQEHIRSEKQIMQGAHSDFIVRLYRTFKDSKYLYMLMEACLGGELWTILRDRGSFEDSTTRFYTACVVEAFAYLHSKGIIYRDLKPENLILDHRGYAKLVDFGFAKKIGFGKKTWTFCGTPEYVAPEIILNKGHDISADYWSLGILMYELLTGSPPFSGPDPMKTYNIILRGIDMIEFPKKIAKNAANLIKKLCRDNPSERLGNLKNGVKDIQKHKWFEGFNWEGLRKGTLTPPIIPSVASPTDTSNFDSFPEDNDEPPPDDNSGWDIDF

[2] = target: panel of 255 wild-type kinases (Homo sapiens, UniProt P10721); conditions: kinase KIT, 1 µmol/L single concentration, cited from earlier work
[3] = target: panel of 255 wild-type kinases (Homo sapiens, UniProt P49674); conditions: kinase CK1ε, 1 µmol/L single concentration, cited from earlier work
[4] = target: panel of 255 wild-type kinases (Homo sapiens, UniProt P17252); conditions: kinase PKCα, 1 µmol/L single concentration, cited from earlier work
[5] = target: panel of 255 wild-type kinases (Homo sapiens, UniProt Q7KZI7); conditions: MARK2, 1 µmol/L single concentration, cited from earlier work
[6] = target: panel of 255 wild-type kinases (Homo sapiens, UniProt P19525); conditions: kinase PKR, 1 µmol/L single concentration, cited from earlier work
[7] = target: T2, panel of 255 wild-type kinases (Homo sapiens, UniProt O14965); conditions: cited from earlier work
T2 sequence (O14965 1-403): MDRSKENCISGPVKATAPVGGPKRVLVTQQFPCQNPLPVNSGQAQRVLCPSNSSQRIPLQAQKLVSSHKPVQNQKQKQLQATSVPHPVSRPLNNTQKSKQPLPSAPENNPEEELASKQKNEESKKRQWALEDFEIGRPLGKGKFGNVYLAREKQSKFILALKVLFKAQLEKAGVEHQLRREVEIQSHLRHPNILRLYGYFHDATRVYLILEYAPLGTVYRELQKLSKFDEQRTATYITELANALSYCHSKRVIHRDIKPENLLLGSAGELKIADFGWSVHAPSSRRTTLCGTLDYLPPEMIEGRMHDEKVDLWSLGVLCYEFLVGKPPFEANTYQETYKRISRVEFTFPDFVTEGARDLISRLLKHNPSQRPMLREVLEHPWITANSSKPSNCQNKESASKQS

[8] = target: panel of 255 wild-type kinases (Homo sapiens, UniProt Q15349); conditions: kinase RSK3, 1 µmol/L single concentration, cited from earlier work
[9] = target: panel of 255 wild-type kinases (Homo sapiens, UniProt Q16288); conditions: kinase TRKC, 1 µmol/L single concentration, cited from earlier work
[10] = ref DOI: 10.1158/1535-7163.MCT-18-0877
[11] = AurA kinase assay, 1 µmol/L single concentration, ref DOI: 10.1158/1535-7163.MCT-18-0877
[12] = AurA/TPX2 kinase assay, 1 µmol/L single concentration, ref DOI: 10.1158/1535-7163.MCT-18-0877
[13] = ref DOI: 10.1371/journal.pone.0092146
[14] = AurA kinase assay, 1 µmol/L single concentration, ref DOI: 10.1371/journal.pone.0092146
[15] = AurA/TPX2 kinase assay, 1 µmol/L single concentration, ref DOI: 10.1371/journal.pone.0092146

Compound | %-inhibition at 1 µmol/L, PGK [1, 10] | %-inhibition at 1 µmol/L, KIT [2, 10] | %-inhibition at 1 µmol/L, CK1ε [3, 10] | %-inhibition at 1 µmol/L, PKCα [4, 10] | %-inhibition, MARK2 [5, 10] | %-inhibition at 1 µmol/L, PKR [6, 10] | %-inhibition AurA [7, 11] | %-inhibition AurA/TPX2 [7, 12] | %-inhibition at 1 µmol/L, RSK3 [8, 10] | %-inhibition at 1 µmol/L, TRKC [9, 10] | %-inhibition at 1 µmol/L, KIT [2, 13] | %-inhibition at 1 µmol/L, CK1ε [3, 13] | %-inhibition, MARK2 [5, 13] | further results
C=CC(=O)N1CCC[C@@H](n2nc(-c3ccc(Oc4ccccc4)cc3)c3c(N)ncnc32)C1 [ibrutinib] | 1.89% | -4.53% | 50% | 0.745% | 2.67% | 5.63% | 30% | -2.33% | 9% | 24% | – | – | – | –
CC(=O)Nc1cccc(-n2c(=O)n(C3CC3)c(=O)c3c(Nc4ccc(I)cc4F)n(C)c(=O)c(C)c32)c1 [trametinib] | – | – | – | – | – | – | – | – | – | – | -0.648% | -5.38% | -6% | %-inhibition at 1 µmol/L, PGK [1, 13]: -1.31%; %-inhibition at 1 µmol/L, PKCα [4, 13]: -5%; %-inhibition at 1 µmol/L, PKR [6, 13]: 1.13%; %-inhibition AurA [7, 14]: -2%; %-inhibition AurA/TPX2 [7, 15]: -5.37%; %-inhibition at 1 µmol/L, RSK3 [8, 13]: -5%; %-inhibition at 1 µmol/L, TRKC [9, 13]: -7.43%
Cc1cc(Nc2ncc(Cl)c(Nc3ccccc3S(=O)(=O)C(C)C)n2)c(OC(C)C)cc1C1CCNCC1 [ceritinib] | 38% | – | 5% | -9% | 4% | -1% | 12% | 2.84% | 90% | 9% | – | – | – | –
C[C@@H](Oc1cc(-c2cnn(C3CCNCC3)c2)cnc1N)c1c(Cl)ccc(F)c1Cl [crizotinib] | – | – | – | – | – | – | – | – | – | – | 16% | 4% | 26% | %-inhibition at 1 µmol/L, PGK [1, 13]: -2.6%; %-inhibition at 1 µmol/L, PKCα [4, 13]: -8.47%; %-inhibition at 1 µmol/L, PKR [6, 13]: 6%; %-inhibition at 1 µmol/L, RSK3 [8, 13]: 3.34%
C=CC(=O)Nc1cc(Nc2nccc(-c3cn(C)c4ccccc34)n2)c(OC)cc1N(C)CCN(C)C [osimertinib] | 3.61% | -13% | 18% | 11% | 26% | 6% | 9% | 7.38% | 53% | -1.61% | – | – | – | –
CCCS(=O)(=O)Nc1ccc(F)c(C(=O)c2c[nH]c3ncc(-c4ccc(Cl)cc4)cc23)c1F [vemurafenib] | – | – | – | – | – | – | – | – | – | – | 58% | 2.46% | -0.167% | %-inhibition at 1 µmol/L, PGK [1, 13]: -4.33%; %-inhibition at 1 µmol/L, PKCα [4, 13]: -3.61%; %-inhibition at 1 µmol/L, PKR [6, 13]: -0.765%; %-inhibition AurA [7, 14]: 23%; %-inhibition AurA/TPX2 [7, 15]: -2.59%; %-inhibition at 1 µmol/L, RSK3 [8, 13]: -0.497%; %-inhibition at 1 µmol/L, TRKC [9, 13]: 5%
O=C(c1ccc(F)c(F)c1Nc1ccc(I)cc1F)N1CC(O)([C@@H]2CCCCN2)C1 [cobimetinib] | 2.54% | -17% | 2.44% | 1.54% | -6.58% | 0.867% | -0.696% | -1.88% | 8% | -1.37% | – | – | – | –
CC(C)(C)c1nc(-c2cccc(NS(=O)(=O)c3c(F)cccc3F)c2F)c(-c2ccnc(N)n2)s1 [dabrafenib] | – | – | – | – | – | – | – | – | – | – | 59% | 10% | 2.85% | %-inhibition at 1 µmol/L, TRKC [9, 13]: 81%
CO[C@@H]1[C@H](N(C)C(=O)c2ccccc2)C[C@H]2O[C@]1(C)n1c3ccccc3c3c4c(c5c6ccccc6n2c5c31)C(=O)NC4 [midostaurin] | 98% | – | – | 92% | – | 32% | – | – | 98% | – | – | – | – | %-inhibition AurA [7]: 100%; %-inhibition AurA/TPX2 [7]: 91%
CC#CC(=O)N1CCC[C@H]1c1nc(-c2ccc(C(=O)Nc3ccccn3)cc2)c2c(N)nccn12 [acalabrutinib] | -3.7% | 3% | -10% | -17% | -9% | 7% | 2.34% | -4.71% | 1.13% | 11% | – | – | – | –
CCc1cc2c(cc1N1CCC(N3CCOCC3)CC1)C(C)(C)c1[nH]c3cc(C#N)ccc3c1C2=O [alectinib] | -1.53% | 0.373% | 4.48% | 1.48% | 5.66% | 5.33% | 5% | -3% | – | 31% | – | – | – | –
